Measured values reported in patent US9763939B2, “Compositions and methods for treating mitochondrial diseases” (BIOVISTA, INC., priority 2012, dated 2017).
Read-outs that look alike come from different tables or passages of the source.

What was measured:
[1] = system: C57BL/6 mice with MOG-induced EAE; test: MOG-induced Experimental Allergic Encephalomyelitis (MOG-EAE) mouse model, spinal cord histology; format: in vivo; settings: spinal cord H&E histology day 35, pirlindole 30 mg/kg, dexamethasone positive control, dose not given; for Severity Score (infiltration by inflammatory cells): vehicle 2.85±0.66; for White Matter Damage (WMD) percentage (axonal degeneration): vehicle 74.2±26.1
Method: EXAMPLE. Evaluation of anti-inflammatory and direct protection mode of action. Compounds described herein are evaluated in a standard MOG-induced Experimental Allergic Encephalomyelitis (MOG-EAE) mouse model of neurodegeneration to determine whether the compounds protect neurons directly, or via an indirect anti-inflammatory mode of action. EAE is induced in C57BL/6 mice by the single subcutaneous injection of MOG emulsified in Complete Freund's Adjuvant (CFA) on study days 0 and 6, followed by intraperitoneal supplemental immunostimulation with Pertussis Toxin (PT) carried out once at the time of EAE induction and once again 48 hours later. Test animals are observed for 35 days. Histology samples are harvested from the spinal cords of the animals on day 35 and are stained with Hematoxylin & Eosin (H&E). Analysis of the samples comprises two parameters: a) The Severity Score which refers mainly to infiltration by inflammatory cells and b) White Matter Damage (WMD), which refers mainly to axonal degeneration.

dopaminergic system = test: Effect on the dopaminergic system
[2] = Pharmacokinetics and distribution in the rat; format: in vivo
[3] = system: human primary fibroblasts from patients suffering from Friedreich's ataxia; test: cells; settings: for statistically significant improvement in apoptosis compared to the BSO group: all tested doses
Method: (§1) EXAMPLE. […] Briefly, primary human fibroblasts from patients suffering from Friedreich's ataxia and LHON are lesioned with 100 μM BSO (LHON fibroblasts) or 250 μM BSO (FRDA fibroblasts) respectively, for 48 hours. Apoptosis, toxicity and viability rate of cells are determined using the ApoTox-Glo-Kit (Promega): the reagent for assessing viability and toxicity is applied 1:5 into treatment medium and incubated for 30 min at 37° C. Next, fluorescence is measured at the following wavelength sets: 400EX/505EM (viability) and 485EX/520EM (toxicity). In case of apoptosis measurement the caspase reagent was added 1:2 and incubated at RT for 30 min, the caspase activity (apoptosis) was measured as luminescence
(§2) EXAMPLE. Evaluation of Tetracyclic Pyrazinoindoles, and Pharmaceutically Acceptable Salts Thereof. One or more tetracyclic pyrazinoindoles are applied 2 and 24 hours before BSO treatment and are present throughout the assay. An optional reference compound, such as idebenone may be included for comparison. BSO treated cells without any treatment (BSO group) as well as cells neither treated with BSO nor with any treatment (Vehicle Control (VC) group) serve as controls. Cells are assessed for apoptosis, toxicity and viability immediately after BSO lesion by means of the ApoTox-Glo-assay Kit (Promega). Three independent experiments in four technical replicates are performed for all groups as depicted in Table 1 (different tetracyclic pyrazinoindoles are labeled as Test Items (T.I.1-T.I.2) and an optional positive control Reference Item 1 (R.I.1)):
(§3) BSO generally reduces a cell's protection against oxidative damage. Cells harvested from FRDA and LHON patients generate higher levels of ROS than normal cells. Apoptosis, toxicity and viability rate of cells are determined using the ApoTox-Glo-Kit (Promega): the reagent for assessing viability and toxicity is applied 1:5 into treatment medium and incubated for 30 min at 37° C. Next, fluorescence is measured at the following wavelength sets: 400EX/505EM (viability) and 485EX/520EM (toxicity). In case of apoptosis measurement the caspase reagent is added 1:2 and incubated at RT for 30 min, the caspase activity (apoptosis) was measured as luminescence
(§4) Descriptive statistical analysis was performed. Data are presented as mean±standard error of mean (SEM) in percent of vehicle control, MPP+ lesion and BSO lesion, respectively. Differences between compound-treated groups and controls (vehicle, BSO) are evaluated by means of One-Way ANOVA.
(§5) EXAMPLE. […] One vial is thawed and administered 2 and 24 hours before BSO treatment, at concentrations 0.6 μM, 1.8 μM, 5.5 μM and 16 μM. Apoptosis, toxicity and viability rate of cells are determined using the ApoTox-Glo-Kit (Promega). Human primary fibroblasts from patients suffering from Friedreich's ataxia are used. Three independent experiments in four technical replicates are performed for all groups. […] Statistical significance is indicated by NS=not significant p>0.1, *=p<0.05, **=p<0.01, ***=p<0.001 as determined by One-Way ANOVA. Data are shown as group mean+/−SEM.
(§6) EXAMPLE. Tetrindole is diluted in DMSO. One vial is thawed and administered 2 and 24 hours before BSO treatment, at concentrations 0.2 μM, 0.6 μM, 1.8 μM and 5.5 μM. Apoptosis, toxicity and viability rate of cells are determined using the ApoTox-Glo-Kit (Promega). Human primary fibroblasts from patients suffering from Friedreich's ataxia are used. Three independent experiments in four technical replicates are performed for all groups. […] Statistical significance is indicated by NS=not significant p>0.1, *=p<0.05, **=p<0.01, ***=p<0.001 as determined by One-Way ANOVA. Data are shown as group mean+/−SEM.

[4] = system: human primary fibroblasts from patients suffering from LHON; test: cells
Method: as §1, §2, §3, §4
as §5, with “LHON” for “Friedreich's ataxia”
as §6, with “LHON” for “Friedreich's ataxia”

[5] = system: YG8R FRDA mouse fibroblasts; test: FAC/BSO oxidative stress insult, cell viability (Presto Blue), YG8R fibroblasts; format: cell-based; settings: FAC and 1 mM BSO 48 h
Method: (§7) EXAMPLE. Primary fibroblast and neuronal stem cell (NSC) cultures from the YG8R FRDA mouse model. The cell cultures are used as a rapid means to test the effectiveness of potential therapies before proceeding to longer-term FRDA mouse model investigations. A parallel assay using YG22R NSCs may be used.
(§8) YG8R fibroblasts and NSCs are treated with increasing concentrations of test compound, and a vehicle-only negative control. Optionally, YG8R fibroblasts and NSCs are treated with a positive control compound, such as 1 μM idebenone. Two hours after the initial treatment, cells are lesioned with […] FAC and 1 mM BSO for 48 hours. Cell viability is then determined using Presto Blue Cell Viability Reagent (Life Technologies) for 24 hours and subsequent colorimetric spectrophotometry. […] Similarly, 1.8 μM tetrindole restored the vehicle-treated FAC/BSO cell viability value of 26% to a value of 53% (p<0.001), relative to the vehicle treated non-insulted cell value as 100%.

cholinergic system = test: Effect on the cholinergic system
[6] = Pharmacokinetics in the dog; format: in vivo
[7] = system: reuptake of 5-hydroxytryptamine; test: Effect on reuptake of 5-hydroxytryptamine
in vivo [8] = settings: mouse
Absolute bioavailability = settings: in vivo; species not given
[9] = system: reuptake of noradrenaline; test: Effect on reuptake of noradrenaline
[10] = system: YG8R FRDA mouse neuronal stem cells (NSCs); test: FAC/BSO oxidative stress insult, cell viability (Presto Blue), YG8R NSCs; format: cell-based
Method: as §7, §8
Similarly, 1.8 μM tetrindole restored the vehicle-treated FAC/BSO cell viability value of 19% to a value of 40% (p<0.001), relative to the vehicle treated non-insulted cell value as 100%.

mice = settings: mouse, in vivo, po
in vivo [11] = settings: rat
[12] = too lipophillic; cannot reach the mitochondria (Edeas M. Pharm Res. 2011); cited from earlier work
[13] = rats, after oral and i.p. administration
[14] = Homo sapiens, Fibroblast, 48 h, read-out: protective effect in relative cell viability

Question: Which results are given for `C[C@@H]1C[C@H]2[C@@H]3CCC4=CC(=O)C=C[C@]4(C)[C@@]3(F)[C@@H](O)C[C@]2(C)[C@@]1(O)C(=O)CO` [dexamethasone]?
Answer: Severity Score (infiltration by inflammatory cells) [1]: 1.45±1.09; White Matter Damage (WMD) percentage (axonal degeneration) [1]: 24.4±33.3 percentage

Question: With `Cc1ccc2c(c1)c1c3n2CCNC3CCC1` (stereo not drawn) [pirlindole, 2,3,3a,4,5,6-hexahydro-8-methyl-1H-pyrazino[3,2,1-j,k]carbazole] as the compound, how does the “effect on the dopaminergic system” value (dopaminergic system) read?
Answer: no effect

Question: And the fraction eliminated ([2]; after 48 h)?
Answer: 80-85%

Question: And the Tmax ([2]; in vivo, rat, oral, approximately)?
Answer: 2 to 6 h

Question: And the “second phase of elimination” value ([2]; rat)?
Answer: 35 to 70 h

Question: And the “first phase of elimination” value ([2]; rat, approximately)?
Answer: approximately 8 h

Question: What about the “blood brain barrier (BBB) penetration” value [2, 13] of the same compound?
Answer: good blood brain barrier (BBB) penetration

Question: And the tissue distribution [2, 13]?
Answer: distributed in the lungs, liver, kidneys, spleen and various glands (but only transiently in bone marrow)

Question: What about the fraction eliminated ([2]; within 24 h) of the same compound?
Answer: 40-60%

Question: And the “statistically significant overall cytotoxicity over BSO control” value [3]?
Answer: not observed at any dose

Question: And the “apoptosis (caspase activity)” value ([3]; 16 μM, only after the short incubation (2 h before lesion))?
Answer: reduced apoptosis

Question: And the viability at 16 µM [3, 14]?
Answer: 161%

Question: What about the “statistically significant improvement in apoptosis compared to the BSO group” value [3] of the same compound?
Answer: not observed at any dose

Question: What about the “statistically significant overall cytotoxicity over BSO control” value [4] of the same compound?
Answer: not observed at any dose

Question: What about the “apoptosis (caspase activity)” value ([4]; 16 μM, only significant after 24 h) of the same compound?
Answer: reduced

Question: What about the “apoptosis compared to the BSO group” value ([4]; 5.5 dose) of the same compound?
Answer: Statistically significant inferior apoptosis

Question: What about the “concentrations with protective effect or protective trend on cell viability” value ([4]; BSO lesion, pirlindole at both time points, tetrindole dose dependent protective trend) of the same compound?
Answer: 16 µM

Question: What about the viability at 16 µM [4, 14] of the same compound?
Answer: 122%

Question: What about the “protection against the oxidative stress insult” value [5] of the same compound?
Answer: significantly protect

Question: What about the viability at 16 µM ([5]; Mus musculus, Fibroblast, 16 μM, vehicle-treated FAC/BSO value 26%, relative to vehicle treated non-insulted cells as 100%, p<0.001) of the same compound?
Answer: 67%

Question: And the “effect on the cholinergic system” value (cholinergic system)?
Answer: no effect

Question: And the “first phase of elimination” value ([6]; dog, approximately)?
Answer: approximately 1.5 h

Question: What about the “second phase of elimination” value ([6]; dog, approximately) of the same compound?
Answer: ~11 h

Question: And the “third phase of elimination” value ([6]; dog, approximately)?
Answer: ~185 h

Question: And the Tmax ([6]; in vivo, dog, oral, approximately)?
Answer: 1 to 2 h

Question: What about the “blood levels versus dose” value ([6]; male and female dogs, repeated administration of three dose levels p.o. for one year) of the same compound?
Answer: strictly dose-dependent

Question: And the “effect on the reuptake of 5-hydroxytryptamine” value [7]?
Answer: inhibitory effect

Question: What about the LD50 (in vivo [8]; iv) of the same compound?
Answer: 70 to 80 mg/kg

Question: What about the LD50 (in vivo [8]; po) of the same compound?
Answer: 400 to 1000 mg/kg

Question: And the bioavailability (Absolute bioavailability)?
Answer: 20 to 30%

Question: And the “effect on the reuptake of noradrenaline” value [9]?
Answer: inhibitory effect

Question: What about the “protection against the oxidative stress insult” value [10] of the same compound?
Answer: significantly protect

Question: And the viability at 5.5 µM ([10]; Mus musculus, 5.5 μM, vehicle-treated FAC/BSO value 19%, relative to vehicle treated non-insulted cells as 100%, p<0.001)?
Answer: 41%

Question: And the “Severity Score (infiltration by inflammatory cells)” value [1]?
Answer: 2.7±1.29

Question: What about the “White Matter Damage (WMD) percentage (axonal degeneration)” value [1] of the same compound?
Answer: 41±44.1 percentage

Question: And the maximal non-lethal dose (mice)?
Answer: approximately 300 mg/kg

Question: What about the LD50 (in vivo [11]; iv) of the same compound?
Answer: ~80 mg/kg

Question: And the LD50 (in vivo [11]; po)?
Answer: 2000 to 5000 mg/kg

Question: What does the source list for `c1cc2c(cc1C1CCCCC1)c1c3n2CCNC3CCC1` (stereo not drawn) [tetrindole, 2,3,3a,4,5,6-Hexahydro-8-cyclohexyl-1H-pyrazino[3,2,1-j,k]carbazole]?
Answer: viability at 1.8 µM [3, 14]: 156%; statistically significant improvement in apoptosis compared to the BSO group [3]: not observed at any dose; statistically significant overall cytotoxicity over BSO control ([3]; human): not observed at any dose, except the highest dose of 5.5; statistically significant overall cytotoxicity over BSO control [4]: not observed at any dose; viability at 1.8 µM [4, 14]: 122%; statistically significant improvement in apoptosis compared to the BSO group ([4]; all tested doses): not observed at any dose; statistically significant improvement in viability compared to the BSO group ([4]; all tested doses): not observed at any dose; protection against the oxidative stress insult [5]: significantly protect; viability at 1.8 µM ([5]; Mus musculus, Fibroblast, 1.8 μM, vehicle-treated FAC/BSO value 26%, relative to vehicle treated non-insulted cells as 100%, p<0.001): 53%; protection against the oxidative stress insult [10]: significantly protect; viability at 1.8 µM ([10]; Mus musculus, 1.8 μM, vehicle-treated FAC/BSO value 19%, relative to vehicle treated non-insulted cells as 100%, p<0.001): 40%

Question: Which “permeation of cell membranes” value [12] does the source give for vitamin E here?
Answer: permeates cell membranes poorly
